These are literature values, as cited in US20130156896A1, “CELLULOSE-BASED FOOD CASING HAVING A FUNGICIDAL FINISH AND A METHOD FOR PROTECTING CELLULOSE-BASED FOOD CASINGS FROM MOLD INFESTATION” (CASETECH GMBH, priority 2011, published 2013).

For data set [1], the system named is microorganisms. To be noted: known from the literature.
Data set [2] concerns Staphylococcus aureus. To be noted: for example against Staphylococcus aureus.
The conditions of data set [3]: animal testing.

SMILES strings stand for the structures.

On to `COc1ccc(O)c(C(C)(C)C)c1` [BHA, butylated hydroxyanisole], for which, in data set [1], the activity against microorganisms entry is on record as “relatively weak activity”.

`CC(C)c1cc2c(c(O)c1O)[C@@]1(C(=O)O)CCCC(C)(C)[C@@H]1CC2` [carnosic acid]: in data set [2], the antimicrobial activity result is “antimicrobial activity”. In addition, in data set [3], the “chemoprotective effect against carcinogens” value is listed as “chemoprotective effect”.
